Test results reported in patent publication EP2796135A1, “Use of trifluoroacetic acid and salts thereof to treat hypercholesterolemia” (POLICHEM S.A., priority 2013, dated 2014).
Counter-ions that a name gives are not always drawn.

How the values were obtained:
[1] = tested on: total cholesterol; assay: preliminary intravenous study in dogs, daily administration for 14 days (Example 14); assay type: in vivo, Beagle dogs; conditions: for reduction in total cholesterol: end of the 14 days of treatment
Protocol: A preliminary intravenous study of the Calcium salt of trifluoroacetic acid was performed in Beagle dogs after daily administration.
Dogs (2 animals/sex/group) were treated by intravenous slow injection (2.5 mL/min) with 100 and 200 mg/kg for 14 consecutive days.
(§1) The intravenous solutions were prepared as for Example 9.

[2] = tested on: total cholesterol; assay: preliminary oral study with ascending dose levels in minipigs (Example 13); assay type: in vivo, Göttingen minipig; conditions: for decrease of total cholesterol: male
Protocol: (§2) A preliminary oral study of the Calcium salt of trifluoroacetic acid was performed in minipigs. One male and one female Göttingen minipig were daily treated by oral route with ascending dose levels of Calcium salt of trifluoroacetic acid, as indicated below.
(§3) The oral solutions were prepared as for Example 1.

[3] = as above; assay type: in vivo, Göttingen minipig; conditions: in vivo, minipig, read-out: maximum tolerated dose
Protocol: as §2, §3

[4] = tested on: total cholesterol; assay: intravenous study in dogs, daily administration for 4 weeks (Example 15); assay type: in vivo, Beagle dogs; conditions: for reduction in total cholesterol: intravenous, end of the 4 weeks of treatment
Protocol: An intravenous study of the Calcium salt of trifluoroacetic acid was performed in Beagle dogs after daily administration for 4 weeks.
Dogs (4 animals/sex/group) were treated by intravenous slow injection (2.5 mL/min) with 50, 100 and 200 mg/kg for 4 consecutive weeks.
as §1

[5] = intravenous, 100 and 200 mg/kg, 14 consecutive days
[6] = ascending doses 50-1000 mg/kg/day

O=C(O)C(F)(F)F [Calcium salt of trifluoroacetic acid, Calcium trifluoroacetate]
reduction in total cholesterol ([1]; females, intravenous, 100 mg/kg/day): 29% | reduction in total cholesterol ([1]; females, intravenous, 200 mg/kg/day): 16% | deaths ([1]; intravenous slow injection, 100 and 200 mg/kg, 14 consecutive days): No deaths occurred | differences in body weight, food consumption, physical examination and chemical chemistry, coagulation, organ weight [1, 5]: No significant differences | findings recorded in the study [1, 5]: limited to the site of injection | reduction in total cholesterol ([1]; males, intravenous, 100 mg/kg/day): 18% | reduction in total cholesterol ([1]; males, intravenous, 200 mg/kg/day): 21% | changes in body weight, food consumption and water consumption [2, 6]: No changes of toxicological relevance | changes in hematology [2, 6]: No changes of note | mortality ([2]; ascending doses 50-1000 mg/kg/day, one male and one female minipig): No mortality occurred | decrease of total cholesterol ([2]; 150 mg/kg/day): 18% | decrease of total cholesterol ([2]; 200 mg/kg/day): 33% | decrease of total cholesterol ([2]; 300 mg/kg/day): 44% | decrease of total cholesterol ([2]; 600 mg/kg/day): 49% | decrease of total cholesterol ([2]; 1000 mg/kg/day): 56% | MTD [3]: ≥ 1000 mg/kg | changes in body weight, food consumption and water consumption, hematological, chemical chemistry, fecal and urinalysis parameters ([4]; both sexes, intravenous, 50, 100 and 200 mg/kg, 4 weeks): No changes of toxicological relevance | reduction in total cholesterol ([4]; females, 50 mg/kg/day): 20% | reduction in total cholesterol ([4]; females, 100 mg/kg/day): 29% | reduction in total cholesterol ([4]; females, 200 mg/kg/day): 24% | deaths ([4]; intravenous slow injection, 50, 100 and 200 mg/kg, 4 consecutive weeks): No deaths occurred | organ weights ([4]; intravenous, 50, 100 and 200 mg/kg, 4 weeks): unaffected | findings at the site of injection and electrographic alterations ([4]; intravenous, 50, 100 and 200 mg/kg, 4 weeks, findings at the site of injection minimal to moderate): dose dependent and reversible | reduction in total cholesterol ([4]; males, 50 mg/kg/day): 9% | reduction in total cholesterol ([4]; males, 100 mg/kg/day): 21% | reduction in total cholesterol ([4]; males, 200 mg/kg/day): 15%
